Measured values as given in US4442098A, “Pentacyclic derivatives of piperazine” (Beecham Group Limited, priority 1980, dated 1984).
Read-outs that look alike come from different tables or passages of the source.

Test system: central 5HT
Assay: inhibition of behavioural symptoms (forepaw tapping, head jerks, splayed limbs) induced by 5-methoxy-N,N-dimethyltryptamine in mice
Format: in vivo, mice (male CD-1 Charles Rine)
Conditions: 1 h pretreatment, 10 mg/kg ip 5-methoxy-N,N-dimethyltryptamine; for ED50: Mus musculus, 1 h, read-out: ED50 (dose of compound inhibiting the symptoms by 50%)
Protocol: Mice (.male. CD^-1 Charles Rine) are pretreated with the compounds 10 animals/group under investigation and 1 h later one group is injected with 10 mg/kg ip 5-methoxy-N,N-dimethyltryptamine (Sigma). The symptoms of forepaw tapping movements, head jerks and splayed limbs are scored: 1, present; 0, absent, giving a maximum score of 3/mouse or 30/group. Results are expressed as the percentage inhibition compared to the group treated with 5-methoxy-N,N-dimethyl tryptamine alone. The dose of compound inhibiting the symptoms by 50% is determined graphically.

SMILES | ED50 (po, p.o.) | also measured
CN1CC2CCc3cccc4c3N2C(C1)c1ccccc1C4 (stereo not shown) [Compound 6, 1,2,3,3a,4,5,9,13b Octahydro-2-methyl-2-benzazepino[4,3,2-ij]pyrazino[1,2-a]quinoline] | 10 mg/kg | –
CN1CC2CC(=O)c3cccc4c3N2C(C1)c1ccccc1C4 (stereo not shown) [Compound 1, 1,2,3,3a,4,5,9,13b-Octahydro-2-methyl-2-benzazepino[4,3,2-ij]pyrazino[1,2-a]quinolin-5-one] | 12 mg/kg | –
CN1CC2CC(=O)c3cccc4c3N2C(C1)c1ccccc1O4 (stereo not shown) [Compound 16, 2-methyl,1,3,4,14b-tetrahydro 4,6-ethano-2H-dibenzo[bf]pyrazino[1,2-d][1,4]oxazepin-15-one] | 10 mg/kg | –
CN1CC2CC(O)c3cccc4c3N2C(C1)c1ccccc1C4 (single isomer, unassigned) [Compound 3, 1,2,3,3a,4,5,9,13b-Octahydro-2-methyl-2-benzazepino[4,3,2-ij]pyrazino[1,2-a]quinolin-5-ol] | 0.65 mg/kg | –
CN1CC2CC(O)c3cccc4c3N2C(C1)c1ccccc1C4 (single isomer, unassigned) [Compound 4, 1,2,3,3a,4,5,9,13b-Octahydro-2-methyl-2-benzazepino[4,3,2-ij]pyrazino[1,2-a]quinolin-5-ol] | – | ED50 (ip, i.p.): 0.3 mg/kg
CN1CC2CCc3cccc4c3N2C(C1)c1ccccc1C4 (stereo not shown) [Compound 7, 1,2,3,3a,4,5,9,13b-octahydro-2-methyl-2-benzazepino[4,3,2-ij]pyrazino[1,2-a]quinoline] | – | ED50 (dose of compound inhibiting the symptoms by 50%) (p.o., 60 min): 13 mg/kg
CN1CC2CC(=NO)c3cccc4c3N2C(C1)c1ccccc1C4 (stereo not shown) [Compound 8, 1,2,3,3a,4,5,9,13b-octahydro-2-methyl-2-benzazepino[4,3,2-ij]-pyrazino[1,2-a]-5-oxaminoquinoline] | 3 mg/kg | –
